Assay results reported in PubChem BioAssay (NCI).
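Protocol summary: plate cells (96-well), add compound at 5 concentrations, incubate 48 h, interpolate endpoints linearly. The concentration for 50% growth inhibition is given as GI50. The concentration for full growth arrest is given as TGI.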

Legend:
Test in all cases: DTP human tumour cell line panel, 48 h
BT-549 breast = test system: BT-549 breast
MDA-MB-231 breast = test system: MDA-MB-231 breast
HS 578T breast = test system: HS 578T breast
SNB-78 CNS = test system: SNB-78 CNS
HOP-18 NSCLC = test system: HOP-18 NSCLC
M19-MEL melanoma = test system: M19-MEL melanoma
LXFL 529 NSCLC = test system: LXFL 529 NSCLC
DMS 114 small cell lung = test system: DMS 114 small cell lung
DMS 273 small cell lung = test system: DMS 273 small cell lung
XF 498 CNS = test system: XF 498 CNS

Row | Structure (SMILES) | GI50 (BT-549 breast) [µM] | TGI (BT-549 breast) [µM] | GI50 (MDA-MB-231 breast) [µM] | TGI (MDA-MB-231 breast) [µM] | GI50 (HS 578T breast) [µM] | TGI (HS 578T breast) [µM] | TGI (SNB-78 CNS) [µM] | TGI (HOP-18 NSCLC) [µM] | TGI (M19-MEL melanoma) [µM] | TGI (LXFL 529 NSCLC) [µM] | TGI (DMS 114 small cell lung) [µM] | TGI (DMS 273 small cell lung) [µM] | TGI (XF 498 CNS) [µM]
1 | CSC1=NCC2(S1)c1ccccc1N(C(=O)OC(C)(C)C)C2N1CCCCC1 (stereo not drawn) | > 100 | > 100 | 41.8 | > 100 | 81.8 | > 100 | – | – | – | – | – | – | –
2 | CC1(C)CC[C@]2(C(N)=O)CC[C@]3(C)C(=CC[C@@H]4[C@@]5(C)C/C(=C/c6ccncc6)C(=O)C(C)(C)[C@@H]5CC[C@]43C)[C@@H]2C1 | – | – | 1.86 | 4.15 | 3.07 | > 100 | – | – | – | – | – | – | –
3 | COc1ccc(C(O)CC(O)(C(F)(F)F)C(F)(F)F)cc1 (stereo not drawn) | – | – | – | > 100 | – | 61.7 | – | – | – | – | – | – | –
4 | CCOP(=O)(Nc1ccc2oc(=O)c3ccccc3c2c1)OCC | – | > 100 | – | > 100 | – | > 100 | – | – | – | – | – | – | –
5 | CSc1ccc(C(=O)C(=O)c2ccc(SC)s2)s1 | – | – | – | > 10 | – | > 10 | – | – | – | – | – | – | –
6 | CCCCCCCCCCCCCc1nn[nH]n1 | – | – | – | – | – | – | 43.6 | 28.2 | 36.8 | 31.2 | 38.4 | – | –
7 | CCOC(=O)C1COc2cc(-c3cc(=O)c4ccccc4o3)ccc2O1 (stereo not drawn) | – | – | – | – | – | – | > 100 | – | > 100 | > 100 | > 100 | > 100 | 96.9
8 | C/C(CC(=O)N(C(C)C)C(C)C)=N\NC(=O)c1ccncc1 | – | – | – | – | – | – | > 100 | > 100 | > 100 | > 100 | – | > 100 | > 100
9 | COC(OC)c1cc2c(cc1C(=O)[C@@]13CCC[C@@H]1NC(=O)O3)OCO2 | – | – | – | – | – | – | > 100 | – | > 100 | – | > 100 | > 100 | > 100
10 | COc1cccc(C2NC(=S)NC(C)=C2C(=O)Nc2ccc(Cl)c(Cl)c2)c1 (stereo not drawn) | 7.15 | 16.8 | 9.41 | 19.6 | 10.7 | 28.8 | – | – | – | – | – | – | –
11 | O=c1[nH]c2ccccc2n1-c1n[nH]c2ccccc12 | 30.5 | > 100 | 22.9 | > 100 | 23 | > 100 | – | – | – | – | – | – | –
12 | CC/C=C\C/C=C\C[C@H](O)C/C=C1/C(=O)C=C[C@@H]1C/C=C\CCCC(=O)OC | 1.83 | 4.01 | 3 | 10.3 | 6.59 | 46.7 | – | – | – | – | – | – | –
13 | COC(=O)CC(C(C(C)=O)C(=O)OCc1ccccc1)N1C(=O)OCC1c1ccccc1 (stereo not drawn) | – | – | – | – | – | – | – | – | > 100 | > 100 | > 100 | > 100 | > 100
14 | COc1ccccc1NC(=O)C(CC(C(=O)Nc1ccccc1OC)/C(C)=N/Nc1ccc([N+](=O)[O-])cc1[N+](=O)[O-])/C(C)=N/Nc1ccc([N+](=O)[O-])cc1[N+](=O)[O-] (stereo not drawn) | – | – | – | – | – | – | > 100 | > 100 | > 100 | > 100 | – | > 100 | > 100
15 | CC1COCC(C)N1C1=C(Cl)C(=O)c2ccccc2C1=O (stereo not drawn) | 11.7 | 24 | 2.46 | 11 | 6.38 | 50.5 | – | – | – | – | – | – | –
16 | COc1ccc(OC)c2c3c(ccc12)C(c1ccccc1)OC3=O (stereo not drawn) | – | – | – | – | – | – | 64.9 | > 100 | > 100 | > 100 | > 100 | > 100 | –

Row | Structure (SMILES) | GI50 (BT-549 breast) [µM] | TGI (BT-549 breast) [µM] | GI50 (MDA-MB-231 breast) [µM] | TGI (MDA-MB-231 breast) [µM] | GI50 (HS 578T breast) [µM] | TGI (HS 578T breast) [µM] | TGI (SNB-78 CNS) [µM] | TGI (HOP-18 NSCLC) [µM] | TGI (M19-MEL melanoma) [µM] | TGI (LXFL 529 NSCLC) [µM] | TGI (DMS 114 small cell lung) [µM] | TGI (DMS 273 small cell lung) [µM] | TGI (XF 498 CNS) [µM]
17 | CCOc1cc(-c2ccc[nH]2)[nH]c1/C=C1\N=C(C)C(C(=O)OC)=C1C | 0.0451 | 1.92 | 0.0171 | 0.279 | 0.0475 | 0.58 | – | – | – | – | – | – | –
18 | O=C(Nc1cccc(NC(=O)c2cc(=O)c3ccccc3o2)n1)c1cc(=O)c2ccccc2o1 | – | – | – | – | – | – | > 100 | – | > 100 | > 100 | 92 | 57.8 | –
19 | CCCCCCCCCCCCCCCCOC(=O)c1cc(O)cc(C(=O)OCCCCCCCCCCCCCCCC)c1 | – | – | – | – | – | – | > 100 | > 100 | > 100 | > 100 | > 100 | > 100 | –
20 | COc1cnc2cc(C(=O)O)c3ccccc3c2c1 | – | – | – | > 100 | – | > 100 | – | – | – | – | – | – | –
21 | COc1cc(/C=C(\C#N)C(N)=C(C#N)C#N)cc(O)c1O | – | > 100 | – | > 100 | – | > 100 | > 100 | – | > 100 | > 100 | > 100 | > 100 | > 100
22 | CC1=C(C(=O)Nc2ccc(Cl)c(Cl)c2)C(c2ccccc2O)NC(=O)N1 (stereo not drawn) | 15.3 | > 50 | 28 | > 50 | 32.2 | > 50 | – | – | – | – | – | – | –
23 | CCCCCCCCCCCCOP(N)(=O)OCCCCCCCCCCCC | – | – | – | – | – | – | > 100 | – | > 100 | > 100 | > 100 | > 100 | –
24 | CC(=O)C1C(=O)N(C(C)C)C[C@@H]2CCC(=O)C[C@H]12 (stereo partly drawn) | – | – | – | – | – | – | > 100 | – | > 100 | > 100 | > 100 | > 100 | > 100
25 | C#CCN(Cc1ccc2nc(N)[nH]c(=O)c2c1)c1ccc(C(=O)NC(CCC(=O)O)C(=O)O)cc1 (stereo not drawn) | – | > 100 | – | > 100 | – | – | – | – | – | – | – | – | –
26 | CC1(C)OC2C(COS(N)(=O)=O)SC(n3cnc4cncnc43)C2O1 (stereo not drawn) | > 100 | > 100 | > 100 | > 100 | > 100 | > 100 | – | – | – | – | – | – | –
27 | N#CC1C=Cc2ccccc2N1C(=O)Oc1ccccc1 (stereo not drawn) | – | > 100 | – | > 100 | – | > 100 | – | – | – | – | – | – | –
28 | CC(C)C(=O)Oc1cc2c(=O)oc3c(OC(=O)C(C)C)c(OC(=O)C(C)C)cc4c(=O)oc(c1OC(=O)C(C)C)c2c34 | – | > 100 | – | > 100 | – | > 100 | – | – | – | – | – | – | –
29 | Oc1[nH]c2cc(Cl)ccc2c1/C=c1/ccc2c(c1)N=C(c1cc(F)cc(F)c1)N=2 | 2.1 | 10 | 2.78 | 12.3 | 1.55 | 10.2 | – | – | – | – | – | – | –
30 | Cc1nc(-n2nc(-c3ccccc3)cc2-c2ccccc2)sc1C(/C=C/c1ccc([N+](=O)[O-])cc1)=N/NC(=O)c1ccncc1 | – | – | – | – | – | – | 61 | – | 92.6 | 43.2 | 58.5 | – | –
31 | Cc1cc([N+](=O)[O-])c(C)c(Br)c1C | – | > 100 | – | > 100 | – | > 100 | – | – | – | – | – | – | –
32 | Oc1ccc(Cl)cc1Cc1cc(Cl)ccc1O | 2.6 | 8.76 | 1.65 | 5.01 | 1.91 | 7.35 | – | – | – | – | – | – | –
